Reference: PubChem BioAssay AID2060601 (Molecular Pharmacology Branch, DTP, NCI, 2025)

System: 874868-142-R-J2-PDC complex spheroids, growth % test/control
Assay: Anticancer human tumor 874868-142-R-J2-PDC patient-derived head and neck squamous carcinoma cell line growth inhibition [CLK]
Conditions: for IC50: curve of first compound; for viability, T/C: stronger effect = lower value
Summary of the method: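 Multi-cell-type spheroids combined patient-derived tumor cells with HUVEC endothelial cells and human mesenchymal stem cells. Paired agents were dosed in half-log steps down from about clinical Cmax, or from 10 microM where Cmax was unknown.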

[1] = second compound 0.0316 µM, first compound 0.0316 µM
[2] = second compound 0.0316 µM, first compound 0.1 µM
[3] = second compound 0.0316 µM, first compound 0.316 µM
[4] = second compound 0.0316 µM, first compound 1 µM
[5] = second compound 0.0316 µM, first compound 3.16 µM
[6] = second compound 0.0316 µM, first compound 10 µM
[7] = second compound 0.1 µM, first compound 0.0316 µM
[8] = second compound 0.1 µM, first compound 0.1 µM
[9] = second compound 0.1 µM, first compound 0.316 µM
[10] = second compound 0.1 µM, first compound 1 µM
[11] = second compound 0.1 µM, first compound 3.16 µM
[12] = second compound 0.1 µM, first compound 10 µM
[13] = second compound 0.316 µM, first compound 0.0316 µM
[14] = second compound 0.316 µM, first compound 0.1 µM
[15] = second compound 0.316 µM, first compound 0.316 µM
[16] = second compound 0.316 µM, first compound 1 µM
[17] = second compound 0.316 µM, first compound 3.16 µM
[18] = second compound 0.316 µM, first compound 10 µM
[19] = second compound 1 µM, first compound 0.0316 µM
[20] = second compound 1 µM, first compound 0.1 µM
[21] = second compound 1 µM, first compound 0.316 µM
[22] = second compound 1 µM, first compound 1 µM
[23] = second compound 1 µM, first compound 3.16 µM
[24] = second compound 1 µM, first compound 10 µM
[25] = second compound 3.16 µM, first compound 0.0316 µM
[26] = second compound 3.16 µM, first compound 0.1 µM
[27] = second compound 3.16 µM, first compound 0.316 µM
[28] = second compound 3.16 µM, first compound 1 µM
[29] = second compound 3.16 µM, first compound 3.16 µM
[30] = second compound 3.16 µM, first compound 10 µM
[31] = second compound 10 µM, first compound 0.0316 µM
[32] = second compound 10 µM, first compound 0.1 µM
[33] = second compound 10 µM, first compound 0.316 µM
[34] = second compound 10 µM, first compound 1 µM
[35] = second compound 10 µM, first compound 3.16 µM
[36] = second compound 10 µM, first compound 10 µM
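Note: spheroids exposed to the compounds for 7 days.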
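Throughout, for viability, T/C: 100% = DMSO vehicle control viability.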

In the case of `CC(C)CC(NC(=O)C(Cc1ccccc1)NC(=O)c1cnccn1)B(O)O` (stereo unspecified) + CN1CCN(c2cc(C(=O)Nc3cc4cc(-c5cnn(C)c5)ccc4cn3)ccn2)CC1, the IC50 (second compound 0.0316 µM) is reported as 4.88 nM, the IC50 (second compound 0.1 µM) is reported as 4.5 nM and the IC50 (second compound 0.316 µM) is reported as < 0.949 nM. The IC50 (second compound 1 µM) was < 0.949 nM, the IC50 (second compound 3.16 µM) was < 0.949 nM and the IC50 (second compound 10 µM) was < 0.949 nM. It also gave a viability, T/C (second compound 0.0316 µM, first compound 0.000949 µM) of 79.4%, a viability, T/C (second compound 0.0316 µM, first compound 0.003 µM) of 91.5% and a viability, T/C (second compound 0.0316 µM, first compound 0.00949 µM) of 1.41%. For the same compound, the viability, T/C (second compound 0.0316 µM, first compound 0.03 µM) was 0.55%, the viability, T/C (second compound 0.0316 µM, first compound 0.0949 µM) was 0.23% and the viability, T/C (second compound 0.0316 µM, first compound 0.3 µM) was 0.27%. It also gave a viability, T/C (second compound 0.1 µM, first compound 0.000949 µM) of 68.9%, a viability, T/C (second compound 0.1 µM, first compound 0.003 µM) of 83.1% and a viability, T/C (second compound 0.1 µM, first compound 0.00949 µM) of 2.27%. For the same compound, the viability, T/C (second compound 0.1 µM, first compound 0.03 µM) was 0.42%, the viability, T/C (second compound 0.1 µM, first compound 0.0949 µM) was 0.14% and the viability, T/C (second compound 0.1 µM, first compound 0.3 µM) was 0.34%. It also gave a viability, T/C (second compound 0.316 µM, first compound 0.000949 µM) of 20.8%, a viability, T/C (second compound 0.316 µM, first compound 0.003 µM) of 14.3% and a viability, T/C (second compound 0.316 µM, first compound 0.00949 µM) of 0.46%. The viability, T/C (second compound 0.316 µM, first compound 0.03 µM) was 0.14%, the viability, T/C (second compound 0.316 µM, first compound 0.0949 µM) was 0.13% and the viability, T/C (second compound 0.316 µM, first compound 0.3 µM) was 0.15%. The viability, T/C (second compound 1 µM, first compound 0.000949 µM) was 0.31%, the viability, T/C (second compound 1 µM, first compound 0.003 µM) was 0.22% and the viability, T/C (second compound 1 µM, first compound 0.00949 µM) was 1.17%. The viability, T/C (second compound 1 µM, first compound 0.03 µM) was 0.2%, the viability, T/C (second compound 1 µM, first compound 0.0949 µM) was 0.1% and the viability, T/C (second compound 1 µM, first compound 0.3 µM) was 0.14%. For the same compound, the viability, T/C (second compound 3.16 µM, first compound 0.000949 µM) was 0.33%, the viability, T/C (second compound 3.16 µM, first compound 0.003 µM) was 0.27% and the viability, T/C (second compound 3.16 µM, first compound 0.00949 µM) was 0.28%. It also gave a viability, T/C (second compound 3.16 µM, first compound 0.03 µM) of 0.14%, a viability, T/C (second compound 3.16 µM, first compound 0.0949 µM) of 0.4% and a viability, T/C (second compound 3.16 µM, first compound 0.3 µM) of 0.25%. For the same compound, the viability, T/C (second compound 10 µM, first compound 0.000949 µM) was 0.09%, the viability, T/C (second compound 10 µM, first compound 0.003 µM) was 3.32% and the viability, T/C (second compound 10 µM, first compound 0.00949 µM) was 3.67%. It also gave a viability, T/C (second compound 10 µM, first compound 0.03 µM) of 0.13%, a viability, T/C (second compound 10 µM, first compound 0.0949 µM) of 0.18% and a viability, T/C (second compound 10 µM, first compound 0.3 µM) of 0.22%.
In the case of `CC1COCCN1c1cc(C2(S(C)(=N)=O)CC2)nc(-c2ccnc3[nH]ccc23)n1` (stereo unspecified) + CN1CCN(c2cc(C(=O)Nc3cc4cc(-c5cnn(C)c5)ccc4cn3)ccn2)CC1, the IC50 (second compound 0.0316 µM) is reported as 1900 nM, the IC50 (second compound 0.1 µM) is reported as 578 nM and the IC50 (second compound 0.316 µM) is reported as < 31.6 nM. The IC50 (second compound 1 µM) was < 31.6 nM, the IC50 (second compound 3.16 µM) was < 31.6 nM and the IC50 (second compound 10 µM) was < 31.6 nM. It also gave a viability, T/C [1] of 87.7%, a viability, T/C [2] of 82.5% and a viability, T/C [3] of 71.3%. It also gave a viability, T/C [4] of 73.5%, a viability, T/C [5] of 31.2% and a viability, T/C [6] of 27.6%. For the same compound, the viability, T/C [7] was 68.9%, the viability, T/C [8] was 60.9% and the viability, T/C [9] was 59.3%. The viability, T/C [10] was 42%, the viability, T/C [11] was 20.8% and the viability, T/C [12] was 20.9%. The viability, T/C [13] was 16.6%, the viability, T/C [14] was 19.8% and the viability, T/C [15] was 18.4%. For the same compound, the viability, T/C [16] was 10.8%, the viability, T/C [17] was 13.7% and the viability, T/C [18] was 7.51%. The viability, T/C [19] was 0.41%, the viability, T/C [20] was 0.3% and the viability, T/C [21] was 0.49%. The viability, T/C [22] was 0.28%, the viability, T/C [23] was 0.29% and the viability, T/C [24] was 0.24%. It also gave a viability, T/C [25] of 0.19%, a viability, T/C [26] of 0.25% and a viability, T/C [27] of 0.22%. For the same compound, the viability, T/C [28] was 0.29%, the viability, T/C [29] was 1.32% and the viability, T/C [30] was 0.36%. For the same compound, the viability, T/C [31] was 5.76%, the viability, T/C [32] was 0.21% and the viability, T/C [33] was 1.83%. For the same compound, the viability, T/C [34] was 0.21%, the viability, T/C [35] was 0.21% and the viability, T/C [36] was 0.23%.
With `O=C(c1cc(Cc2n[nH]c(=O)c3ccccc23)ccc1F)N1CCN(C(=O)C2CC2)CC1` + CN1CCN(c2cc(C(=O)Nc3cc4cc(-c5cnn(C)c5)ccc4cn3)ccn2)CC1 the IC50 (second compound 0.0316 µM) was > 10000 nM, the IC50 (second compound 0.1 µM) was > 10000 nM and the IC50 (second compound 0.316 µM) was < 31.6 nM. For the same compound, the IC50 (second compound 1 µM) was < 31.6 nM, the IC50 (second compound 3.16 µM) was < 31.6 nM and the IC50 (second compound 10 µM) was < 31.6 nM. The viability, T/C [1] was 86.3%, the viability, T/C [2] was 88% and the viability, T/C [3] was 89.6%. The viability, T/C [4] was 94.7%, the viability, T/C [5] was 68.2% and the viability, T/C [6] was 83.5%. The viability, T/C [7] was 71.1%, the viability, T/C [8] was 70.4% and the viability, T/C [9] was 69.2%. It also gave a viability, T/C [10] of 65.6%, a viability, T/C [11] of 46.4% and a viability, T/C [12] of 60.5%. It also gave a viability, T/C [13] of 23.5%, a viability, T/C [14] of 20.9% and a viability, T/C [15] of 17.7%. For the same compound, the viability, T/C [16] was 12.1%, the viability, T/C [17] was 21.3% and the viability, T/C [18] was 15.1%. It also gave a viability, T/C [19] of 0.42%, a viability, T/C [20] of 0.25% and a viability, T/C [21] of 0.36%. The viability, T/C [22] was 0.19%, the viability, T/C [23] was 0.32% and the viability, T/C [24] was 0.44%. The viability, T/C [25] was 0.18%, the viability, T/C [26] was 0.2% and the viability, T/C [27] was 0.63%. It also gave a viability, T/C [28] of 0.28%, a viability, T/C [29] of 0.34% and a viability, T/C [30] of 2.51%. The viability, T/C [31] was 0.11%, the viability, T/C [32] was 0.31% and the viability, T/C [33] was 3.38%. For the same compound, the viability, T/C [34] was 0.18%, the viability, T/C [35] was 0.23% and the viability, T/C [36] was 0.69%.
